Measurements reported in patent publication US12054478B2, “Compositions and methods for inhibiting phenyl triazole MLL1-WDR5 protein-protein interaction” (China Pharmaceutical University, priority 2018, dated 2024).

Experiments:
[1] = tested on: H3K4 acetylation level (MLL1 catalytic activity in cells); assay: Western-blot at cellular level, H3K4 acetylation (H3K4me1/2/3) levels; format: cell-based; settings: Yes/No
Experimental: In addition, Western-blot experiments at cellular level were conducted with some of the compounds in the present disclosure, with results listed in Table 1 on whether some of the compounds in the present disclosure inhibited H3K4 acetylation levels.
The inhibition on MLL1 catalytic activities at the cellular level for some of the compounds was plotted in FIG. 2.

[2] = tested on: MV4-11 human acute leukemia monocyte; assay: Anti-proliferation on leukemia cells, MV4-11; format: cell-based; settings: MV-411 cells
Experimental: (§1) Anti-proliferation experiments were conducted with leukemia cells with some of the compounds in the present disclosure.

[3] = tested on: Molm-13 human acute myeloid leukemia cells; assay: Anti-proliferation on leukemia cells, Molm-13; format: cell-based; settings: Molm-13 cells
Experimental: as §1

[4] = tested on: Hox and Meis-1 gene expression; assay: RT-PCR at cellular level, Hox and Meis-1 gene expression; format: cell-based; settings: Yes/No
[5] = molecular target: MLL1-WDR5 protein-protein interactions (Homo sapiens, UniProt P61964); assay: Inhibition of MLL1-WDR5 protein-protein interaction; format: binding; settings: Table 1; read-out: MLL1-WDR5 PPI inhibition activity
[6] = tested on: K562 human chronic myeloid leukemia cells; assay: Anti-proliferation on leukemia cells, K562; format: cell-based
Experimental: Anti-proliferation experiments were conducted with leukemia cells with some of the compounds in the present disclosure. Table 3 listed the results of evaluation of the anti-proliferation activities for some of the compounds from this present disclosure conducted with acute leukemia cells, wherein MV4-11 is human acute leukemia monocyte, Molm-13 is human acute myeloid leukemia cells, and K562 is human chronic myeloid leukemia cells.

female balb/c mice = settings: 80 mg/kg intraperitoneal, 10 consecutive days
Experimental: In the meantime, subacute toxicity experiments were conducted to evaluate the safety of some of the compounds in the present disclosure in mouse.

5-amino-2-chloro-N-(5-(4-(4-(dimethylaminomethyl)benzyl)-1H-1,2,3-triazol-1-group)-2-(4-methylpiperazin-1-group group)phenyl)-4-fluoro-3-Methyl benzoyl [Example 18]
Inhibition on H3K4 acetylation level [1]: Yes
GI50 [2]: 11.2 ± 1.3 µM
GI50 [3]: 15.4 ± 2.2 µM
Downregulation of Hox and Meis-1 expression [4]: Yes
IC50 [5]: < 0.05 µM

Cc1c(F)c(N)cc(C(=O)Nc2cc(-c3ccc(N)cc3)ccc2N2CCN(C)CC2)c1Cl [DDO-2084, reference compound]
Inhibition on H3K4 acetylation level [1]: Yes
GI50 [6]: 50.5 ± 5.5 µM
GI50 ([2]; Homo sapiens, MV4-11): 17.7 ± 2.3 µM
Downregulation of Hox and Meis-1 expression [4]: Yes
IC50 [5]: 0.0887 ± 0.0049 µM

Cc1c(F)c(N)cc(C(=O)Nc2cc(-c3ccc(NC(=O)C(N)C(C)C)cc3)ccc2N2CCN(C)CC2)c1Cl (stereo not shown) [DDO-2113, reference compound]
Mouse survival (female balb/c mice): all mice died after dosing for 5 days

Cc1c(F)c(N)cc(C(=O)Nc2cc(-c3ccc(NC(=O)CCCN)cc3)ccc2N2CCN(C)CC2)c1Cl [DDO-2117, reference compound]
Average body weight changes (female balb/c mice): apparent body weight decrease

COC(=O)c1cn(-c2ccc(N3CCN(C)CC3)c(NC(=O)c3cc(N)c(F)c(C)c3Cl)c2)nn1 [Example 1, 1-(3-(5-amino-2-chloro-4-fluoro-3-methylbenzoylamino)-4-(4-methylpiperazine-1-group)phenyl)-1H-1,2,3-methyl triazole-4-carboxylate]
Inhibition on H3K4 acetylation level [1]: Yes
Downregulation of Hox and Meis-1 expression [4]: Yes

Cc1c(F)c(N)cc(C(=O)Nc2cc(-n3cc(C(=O)N4CCOCC4)nn3)ccc2N2CCN(C)CC2)c1Cl [Example 4]
Inhibition on H3K4 acetylation level [1]: Yes
GI50 [6]: 34.4 ± 0.9 µM
Average body weight changes (female balb/c mice): slight body weight increase
Downregulation of Hox and Meis-1 expression [4]: Yes

Cc1c(F)c(N)cc(C(=O)Nc2cc(-n3cc(C(=O)NC4CCN(C)CC4)nn3)ccc2N2CCN(C)CC2)c1Cl [Example 6, 1-(3-(5-Amino-2-chloro-4-fluoro-3-methylbenzoylamino)-4-(4-methylpiperazin-1-group)phenyl)-N-(1-methylpiperidin-4-group)-1H-1,2,3-triazole-4-carboxamide]
GI50 [6]: 10.4 ± 0.7 µM
Average body weight changes (female balb/c mice): slight body weight increase

Cc1c(F)c(N)cc(C(=O)Nc2cc(-n3cc(C(=O)NCCCN4CCOCC4)nn3)ccc2N2CCN(C)CC2)c1Cl [Example 7]
GI50 [6]: 12.9 ± 0.4 µM
Average body weight changes (female balb/c mice): slight body weight increase

Cc1c(F)c(N)cc(C(=O)Nc2cc(-n3cc(NC(=O)CCCN)nn3)ccc2N2CCN(C)CC2)c1Cl [Example 16, 5-amino-N-(5-(4-(4-Aminobutyrylamino)-1H-1,2,3-triazol-1-group)-2-(4-methylpiperazin-1-group)phenyl)-2-chloro-4-fluoro-3-methyl benzoylamino]
GI50 [6]: 15 ± 0.8 µM
Average body weight changes (female balb/c mice): slight body weight increase
GI50 ([2]; Homo sapiens, MV4-11): 15.1 ± 0.9 µM
IC50 [5]: < 0.01 µM

Cc1c(F)c(O)cc(C(=O)Nc2c(N3CCN(C)CC3)ccc(-n3cc(NCC(N)=O)nn3)c2F)c1Cl [Example 21, N-(3-(4-((2-amino-2-Oxoethyl)amino)-1H-1,2,3-triazol-1-group)-2-fluoro-6-(4-methylpiperazin-1-group)phenyl)-2-chloro-4-fluoro-5-hydroxyl-3-Methyl benzoyl]
GI50 [6]: 10.5 ± 0.8 µM
GI50 ([2]; Homo sapiens, MV4-11): 12.7 ± 0.8 µM
GI50 ([3]; Homo sapiens): 7.7 ± 0.9 µM
IC50 [5]: < 0.08 µM

Cc1c(F)c(N)cc(C(=O)Nc2c(N3CCN(C)CC3)ccc(-n3cc(C(=O)NCCN4CCOCC4)nn3)c2C)c1Cl [Example 22, 1-(3-(5-amino-2-chloro-4-fluoro-3-Methylbenzoylamino)-2-methyl-4-(4-methylpiperazin-1-group)phenyl)-N-(2-Morpholineethyl)-1H-1,2,3-triazol-4-formamide]
GI50 [6]: 10.9 ± 0.7 µM
Average body weight changes (female balb/c mice): slight body weight increase
GI50 ([2]; Homo sapiens, MV4-11): 9.5 ± 0.4 µM
GI50 ([3]; Homo sapiens): 11.2 ± 0.8 µM
IC50 [5]: < 0.01 µM

Cc1c(F)c(N)cc(C(=O)Nc2cc(-n3cc(C(=O)NCCN4CCOCC4)nn3)ccc2N2CCCN(C)CC2)c1Cl [Example 24, 1-(3-(5-amino-2-chloro-4-fluoro-3-Methylbenzoylamino)-4-(4-methyl-1,4-Diazepane-1-group)phenyl)-N-(2-Morpholineethyl)-1H-1,2,3-triazol-4-formamide]
GI50 [6]: 13.5 ± 2.2 µM
GI50 ([2]; Homo sapiens, MV4-11): 11.3 ± 0.7 µM
GI50 ([3]; Homo sapiens): 12.9 ± 0.9 µM
IC50 [5]: < 0.05 µM

Cc1c(F)c(N)cc(C(=O)Nc2cc(-n3cc(C(=O)NCCN4CCOCC4)nn3)ccc2N2CCN(C)C(C)C2)c1Cl (stereo not shown) [Example 25]
GI50 [6]: 11.3 ± 0.7 µM
GI50 ([2]; Homo sapiens, MV4-11): 10.9 ± 0.9 µM
GI50 ([3]; Homo sapiens): 8.5 ± 0.7 µM
IC50 [5]: < 0.05 µM
